# In patent publication US20160303116A1, “TREATMENT OF MULTIPLE SCLEROSIS WITH A 1,2,4-TRIAZOLO [1,5A] PYRIDINE DERIVATIVE” (CEPHALON, INC., priority 2013, published 2016):
# What was measured:
# PLP-induced EAE [1] = experiment: PLP-induced EAE mouse model (relapsing-remitting), clinical signs; format: in vivo, SJL/J mice; details: for Mortality: dead/total, to day 60; for Incidence: sick/total
# in vivo = experiment: in vivo; design: species or system male beagle dogs; details: dog, po
# PLP-induced EAE [2] = experiment: Ex vivo blinded pathology scoring in PLP-induced EAE; design: species or system SJL/J mice; details: 100 mg/kg dose; p<0.05; data not shown
# Procedure: Two transverse sections from each cervical and lumbar intumescence (cervico-thoracic and lumbo-sacral vertebral segments) were evaluated. Histological evaluation was performed on 4 μm thick sections stained with hematoxylin-eosin (H&E), Luxol fast blue periodic acid-Schiff (LFB/PAS) and Bielschowsky silver impregnation to assess inflammation, demyelination and axonal pathology. Histological sections were scored blind. Inflammation was evaluated for both gray and white matter, demyelination was evaluated within white matter only, and axonal injury was evaluated within the white matter. Scores from both cervico-thoracic, and lumbosacral sections, respectively, were averaged to obtain the average inflammation score and demyelination scores. The most severe area of demyelination for each section was used to evaluate axonal pathology. […] The percentage axonal loss was determined by subtracting the number of points crossing axons subtracted by the total number of points of the stereological grid, divided by the total number of points of the stereological grid.
# [3] = design: species or system mice; details: mouse, in vivo
# Procedure: PTX was injected intraperitoneally on the day of induction and 48 hours later at 100 ng/0.2 ml/mouse. […] All animals were monitored daily for clinical signs from the tenth day post-EAE induction until day 30. Scoring of EAE clinical signs was recorded on observations cards according to the grading system described herein.
# SCH-induced EAE = SCH-induced EAE mouse model (acute), clinical signs; format: in vivo, (Balb/c×SJL) F1 (CSFL) mice; details: for GMS reduction / MMS reduction: vs vehicle
# JAK2 = JAK2 (Homo sapiens, UniProt O60674); details: statement with reference to earlier filings; cited from earlier work
# MOG-induced EAE [4] = experiment: MOG-induced EAE mouse model of MS, clinical signs; format: in vivo, C57Bl/6 mice; details: for Percent Inhibition-1: inhibition according to incidence vs vehicle; for Onset (of disease): no EAE counted as 31 days; for Percent Inhibition-3: reduction of GMS vs vehicle; for Percent Inhibition-2: reduction of MMS vs vehicle; for Incidence: sick/total
# MOG-induced EAE [5] = experiment: Histological scoring of spinal cords from MOG-induced EAE mice (inflammation, demyelination); format: in vivo, C57Bl/6 mice; details: 30 and 55 mg/kg twice a day and 110 mg/kg once a day; range over groups
# From the text: At the end of the observation period (day 30) the mice of the treatment groups were necropsied. The mice were deeply anesthetized with isoflourane and air and transcardially perfused, initially with a flushing solution (saline with heparin) until the perfusate was bloodless and then flushed with 4% buffered formalin. The vertebral columns (from the cervical region to the lumbar region) of each of the mice were dissected. The vertebral column was isolated by cutting away as much muscle as possible and sectioned distally at the last rib. The brain and the vertebral column were preserved in 4% buffered formalin.
# Two transverse sections from each cervical and lumbar intumescence (cervico-thoracic and lumbo-sacral vertebral segments) were evaluated. […] Histological sections were scored blind. Inflammation was evaluated for both gray and white matter, demyelination was evaluated within white matter only, and axonal injury was evaluated within the white matter. […] The percentage axonal loss was determined by subtracting the number of points crossing axons subtracted by the total number of points of the stereological grid, divided by the total number of points of the stereological grid.
# Two transverse sections from each cervical and lumbar intumescence (cervico-thoracic and lumbo-sacral vertebral segments) were evaluated. […]
# [6] = 110 mg/kg orally once a day, vs vehicle
# [7] = 110 mg/kg orally twice a day (so in the source)
# JAK2, sequence (O60674 whole entry, species assumed): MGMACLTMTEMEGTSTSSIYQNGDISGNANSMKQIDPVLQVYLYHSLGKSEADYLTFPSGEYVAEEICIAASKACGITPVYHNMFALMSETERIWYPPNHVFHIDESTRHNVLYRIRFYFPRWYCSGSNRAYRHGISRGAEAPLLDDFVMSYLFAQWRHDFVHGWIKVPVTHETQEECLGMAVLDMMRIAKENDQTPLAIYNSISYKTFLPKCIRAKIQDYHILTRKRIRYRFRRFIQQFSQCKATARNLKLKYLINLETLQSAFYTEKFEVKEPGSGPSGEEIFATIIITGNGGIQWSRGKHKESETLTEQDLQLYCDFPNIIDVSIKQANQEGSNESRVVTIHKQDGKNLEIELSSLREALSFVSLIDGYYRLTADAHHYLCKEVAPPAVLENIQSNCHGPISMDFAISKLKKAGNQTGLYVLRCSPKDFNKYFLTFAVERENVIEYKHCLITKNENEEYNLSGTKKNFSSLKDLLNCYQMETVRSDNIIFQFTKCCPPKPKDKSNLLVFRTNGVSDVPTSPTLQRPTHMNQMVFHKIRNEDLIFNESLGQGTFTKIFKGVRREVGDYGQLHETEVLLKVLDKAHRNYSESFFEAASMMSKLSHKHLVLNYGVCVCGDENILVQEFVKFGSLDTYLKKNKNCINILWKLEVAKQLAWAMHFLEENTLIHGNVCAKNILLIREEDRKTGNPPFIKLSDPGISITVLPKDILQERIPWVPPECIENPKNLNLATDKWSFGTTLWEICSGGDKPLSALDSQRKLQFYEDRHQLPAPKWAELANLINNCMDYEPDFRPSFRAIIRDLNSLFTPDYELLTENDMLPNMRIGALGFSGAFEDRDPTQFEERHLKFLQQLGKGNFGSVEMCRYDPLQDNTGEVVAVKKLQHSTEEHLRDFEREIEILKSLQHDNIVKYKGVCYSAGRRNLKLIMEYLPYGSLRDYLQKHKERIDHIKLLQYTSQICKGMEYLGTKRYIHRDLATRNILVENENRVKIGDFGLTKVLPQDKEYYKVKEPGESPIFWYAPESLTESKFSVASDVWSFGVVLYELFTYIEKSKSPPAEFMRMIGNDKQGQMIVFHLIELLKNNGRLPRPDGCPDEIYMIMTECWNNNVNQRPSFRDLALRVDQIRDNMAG
compound,measurement,setting,value
"CN1CCN(c2cccc(Nc3nc4c(-c5ccc(S(C)(=O)=O)cc5)cccn4n3)c2)CC1 [Compound A, [8-(4-methanesulfonyl-phenyl)-[1,2,4]triazolo[1,5-a]pyridin-2-yl]-[3-(4-methyl-piperazin-1-yl)-phenyl]-amine]",GMS (1st and 2nd relapse),PLP-induced EAE [1]; 30 mg/kg orally twice a day,1.3 ± 0.9
same,Mortality,PLP-induced EAE [1]; 30 mg/kg orally twice a day,0/15
same,Incidence,PLP-induced EAE [1]; 30 mg/kg orally twice a day,15/15
same,reduction in overall mean clinical scores compared to vehicle (FIG. 4),PLP-induced EAE [1]; 30 mg/kg twice daily,25.9%
same,reduction in clinical score over that of vehicle,PLP-induced EAE [1]; 60 mg/kg once daily (data not shown),20.1%
same,GMS (1st and 2nd relapse),PLP-induced EAE [1]; 60 mg/kg orally once a day,1.4 ± 0.8
same,Mortality,PLP-induced EAE [1]; 60 mg/kg orally once a day,0/15
same,Incidence,PLP-induced EAE [1]; 60 mg/kg orally once a day,15/15
same,GMS (1st and 2nd relapse),PLP-induced EAE [1]; 60 mg/kg orally twice a day,0.8 ± 0.4
same,Mortality,PLP-induced EAE [1]; 60 mg/kg orally twice a day,0/15
same,Incidence,PLP-induced EAE [1]; 60 mg/kg orally twice a day,15/15
same,reduction in overall mean clinical scores compared to vehicle (FIG. 4),PLP-induced EAE [1]; 60 mg/kg twice daily,49.9%
same,reduction in clinical score over that of vehicle,PLP-induced EAE [1]; 100 mg/kg once daily (data not shown),54.9%
same,GMS (1st and 2nd relapse),PLP-induced EAE [1]; 100 mg/kg orally once a day,0.9 ± 0.5
same,Mortality,PLP-induced EAE [1]; 100 mg/kg orally once a day,0/15
same,Incidence,PLP-induced EAE [1]; 100 mg/kg orally once a day,15/15
same,GMS (1st and 2nd relapse),PLP-induced EAE [1]; 100 mg/kg orally twice a day,0.3 ± 0.3
same,Mortality,PLP-induced EAE [1]; 100 mg/kg orally twice a day,0/15
same,Incidence,PLP-induced EAE [1]; 100 mg/kg orally twice a day,10/15
same,activity in the first relapse,PLP-induced EAE [1]; 100 mg/kg twice a day,97.6%
same,activity in the second relapse,PLP-induced EAE [1]; 100 mg/kg twice a day,85.9%
same,reduction in overall mean clinical scores compared to vehicle (FIG. 4),PLP-induced EAE [1]; 100 mg/kg twice daily,86.1%
same,dose relation of Cmax and AUC,in vivo; 30 mg/kg,"linear, dose-related increases"
same,Cmax,"in vivo; male, beagle, 100 mg/kg",1760 ng/mL
same,reduction of inflammation (H&E staining),PLP-induced EAE [2],significance in the reduction of inflammation
same,exposures associated with efficacy,[3],2000 to 4000 ng/mL
same,Clinical score reduction compared to vehicle (FIG. 3),SCH-induced EAE; 30 mg/kg orally twice a day,37.3%
same,Duration (of disease),SCH-induced EAE; 30 mg/kg orally twice a day,8.2 ± 3.3 days
same,Onset (of disease),SCH-induced EAE; 30 mg/kg orally twice a day,16.2 ± 2.0 days
same,GMS reduction,SCH-induced EAE; 30 mg/kg orally twice a day,37.3%
same,MMS reduction,SCH-induced EAE; 30 mg/kg orally twice a day,17.5%
same,Clinical score reduction compared to vehicle (FIG. 3),SCH-induced EAE; 60 mg/kg orally twice a day,58.3%
same,Duration (of disease),SCH-induced EAE; 60 mg/kg orally twice a day,8.4 ± 4.2 days
same,Onset (of disease),SCH-induced EAE; 60 mg/kg orally twice a day,16.4 ± 3.0 days
same,GMS reduction,SCH-induced EAE; 60 mg/kg orally twice a day,58.3%
same,MMS reduction,SCH-induced EAE; 60 mg/kg orally twice a day,30%
same,Mortality,"SCH-induced EAE; range over groups treated with Compound A, vehicle 40%",20-80%
same,inhibition of JAK2,JAK2,potent
same,Duration (of disease),MOG-induced EAE [4]; 30 mg/kg orally twice a day,3.7 ± 6.1 days
same,GMS (group mean score),MOG-induced EAE [4]; 30 mg/kg orally twice a day,0.2±0.4
same,MMS (mean maximal score),MOG-induced EAE [4]; 30 mg/kg orally twice a day,0.7±1.0
same,Mortality,"MOG-induced EAE [4]; 30 mg/kg orally twice a day, dead/total, to day 30",0/15
same,Percent Inhibition-1,MOG-induced EAE [4]; 30 mg/kg orally twice a day,53.3%
same,Onset (of disease),MOG-induced EAE [4]; 30 mg/kg orally twice a day,23.7 ± 8.2 days
same,Percent Inhibition-3,MOG-induced EAE [4]; 30 mg/kg orally twice a day,90.5%
same,Percent Inhibition-2,MOG-induced EAE [4]; 30 mg/kg orally twice a day,79.4%
same,Incidence,"MOG-induced EAE [4]; 30 mg/kg orally twice a day, to day 30",7/15
same,reduction in clinical scores compared to vehicle (FIG. 1),MOG-induced EAE [4]; 30 mg/kg orally twice daily,90.5%
same,Duration (of disease),MOG-induced EAE [4]; 55 mg/kg orally twice a day,0.2 ± 0.8 days
same,GMS (group mean score),MOG-induced EAE [4]; 55 mg/kg orally twice a day,0.01±0.04
same,MMS (mean maximal score),MOG-induced EAE [4]; 55 mg/kg orally twice a day,0.1±0.3
same,Mortality,"MOG-induced EAE [4]; 55 mg/kg orally twice a day, dead/total, to day 30",0/15
same,Percent Inhibition-1,MOG-induced EAE [4]; 55 mg/kg orally twice a day,93.3%
same,Onset (of disease),MOG-induced EAE [4]; 55 mg/kg orally twice a day,30.5 ± 2.1 days
same,Percent Inhibition-3,MOG-induced EAE [4]; 55 mg/kg orally twice a day,99.5%
same,Percent Inhibition-2,MOG-induced EAE [4]; 55 mg/kg orally twice a day,97.1%
same,Incidence,"MOG-induced EAE [4]; 55 mg/kg orally twice a day, to day 30",1/15
same,reduction in clinical scores compared to vehicle (FIG. 1),MOG-induced EAE [4]; 55 mg/kg orally twice daily,99.5%
same,GMS reduction,MOG-induced EAE [4]; [6],98.5%
same,MMS reduction,MOG-induced EAE [4]; [6],97.1%
same,reduction in clinical score over that of vehicle (FIG. 1),MOG-induced EAE [4]; 110 mg/kg orally once daily,98.5%
same,Duration (of disease),MOG-induced EAE [4]; [7],0.5 ± 2.1 days
same,GMS (group mean score),MOG-induced EAE [4]; [7],0.03 ± 0.1
same,MMS (mean maximal score),MOG-induced EAE [4]; [7],0.1 ± 0.3
same,Mortality,"MOG-induced EAE [4]; 110 mg/kg orally twice a day (so in the source), dead/total, to day 30",0/15
same,Percent Inhibition-1,MOG-induced EAE [4]; [7],93.3%
same,Onset (of disease),MOG-induced EAE [4]; [7],30.5 ± 2.1 days
same,Percent Inhibition-3,MOG-induced EAE [4]; [7],98.5%
same,Percent Inhibition-2,MOG-induced EAE [4]; [7],97.1%
same,Incidence,"MOG-induced EAE [4]; 110 mg/kg orally twice a day (so in the source), to day 30",1/15
same,Mortality,MOG-induced EAE [4]; any of the MOG-induced EAE treatment groups,not observed
same,impact on clinical score over vehicle,"MOG-induced EAE [4]; once daily dosing at 10 mg/kg, 30 mg/kg and 60 mg/kg (data not shown)",no significant impact over vehicle
same,reduction of demyelination over vehicle (LFB/PAS),MOG-induced EAE [5],17.3%-23.9%
same,reduction of spinal inflammation over vehicle (H&E),MOG-induced EAE [5],41.6%-57.5%
